Experimental data published in PubChem BioAssay (NCI).
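GI50: concentration for 50% inhibition of growth. TGI is the concentration that stops growth completely.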

Key:
Experiment in all cases: DTP human tumour cell line panel, 384-well format
NCI-H226 lung = test system: NCI-H226 lung
MCF7 breast = test system: MCF7 breast
NCI-H23 lung = test system: NCI-H23 lung
U251 glioblastoma = test system: U251 glioblastoma
LOX IMVI melanoma = test system: LOX IMVI melanoma
SF-295 CNS = test system: SF-295 CNS
OVCAR-3 ovarian = test system: OVCAR-3 ovarian
SK-MEL-5 melanoma = test system: SK-MEL-5 melanoma
HL-60(TB) leukemia = test system: HL-60(TB) leukemia
786-0 renal = test system: 786-0 renal
SK-MEL-28 melanoma = test system: SK-MEL-28 melanoma
COLO 205 colon = test system: COLO 205 colon
PC-3 prostate = test system: PC-3 prostate
MDA-MB-468 breast = test system: MDA-MB-468 breast
SR leukemia = test system: SR leukemia
OVCAR-5 ovarian = test system: OVCAR-5 ovarian
HS 578T breast = test system: HS 578T breast
NCI-H322M lung = test system: NCI-H322M lung
NCI-H522 lung = test system: NCI-H522 lung
T-47D breast = test system: T-47D breast
KM12 colon = test system: KM12 colon
SF-268 CNS = test system: SF-268 CNS
A549 NSCLC = test system: A549 NSCLC
SN12C renal = test system: SN12C renal
MDA-MB-231 breast = test system: MDA-MB-231 breast
TK-10 renal = test system: TK-10 renal
HOP-92 NSCLC = test system: HOP-92 NSCLC
MDA-MB-435 melanoma = test system: MDA-MB-435 melanoma
UO-31 renal = test system: UO-31 renal
UACC-62 melanoma = test system: UACC-62 melanoma
HCC-2998 colon = test system: HCC-2998 colon
NCI-H460 NSCLC = test system: NCI-H460 NSCLC
DU-145 prostate = test system: DU-145 prostate
HT29 colon = test system: HT29 colon
IGROV1 ovarian = test system: IGROV1 ovarian
CAKI-1 renal = test system: CAKI-1 renal
BT-549 breast = test system: BT-549 breast
M14 melanoma = test system: M14 melanoma
CCRF-CEM leukemia = test system: CCRF-CEM leukemia
HCT-116 colon = test system: HCT-116 colon
OVCAR-4 ovarian = test system: OVCAR-4 ovarian
A498 renal = test system: A498 renal
MOLT-4 leukemia = test system: MOLT-4 leukemia
RPMI-8226 leukemia = test system: RPMI-8226 leukemia
SK-OV-3 ovarian = test system: SK-OV-3 ovarian
OVCAR-8 ovarian = test system: OVCAR-8 ovarian
SK-MEL-2 melanoma = test system: SK-MEL-2 melanoma

With `NC(=O)c1nc(-c2c(F)cccc2Cl)oc1Nc1ccc(C(=O)N2CCOCC2)cc1` the GI50 (NCI-H226 lung) was 0.474 µM, the TGI (NCI-H226 lung) was 2.67 µM and the GI50 (MCF7 breast) was 0.708 µM. For the same molecule, the TGI (MCF7 breast) was 16.8 µM, the GI50 (NCI-H23 lung) was 0.6 µM and the TGI (NCI-H23 lung) was 4.43 µM. The GI50 (U251 glioblastoma) was 2.59 µM, the TGI (U251 glioblastoma) was 16 µM and the GI50 (LOX IMVI melanoma) was 0.869 µM. It also gave a TGI (LOX IMVI melanoma) of 2.39 µM, a GI50 (SF-295 CNS) of 2.95 µM and a TGI (SF-295 CNS) of over 45.9 µM. The GI50 (OVCAR-3 ovarian) was 1.6 µM, the TGI (OVCAR-3 ovarian) was 7.65 µM and the GI50 (SK-MEL-5 melanoma) was 13.6 µM. For the same molecule, the TGI (SK-MEL-5 melanoma) was 34.7 µM, the GI50 (HL-60(TB) leukemia) was 0.36 µM and the TGI (HL-60(TB) leukemia) was 1.09 µM. The GI50 (786-0 renal) was 3.95 µM, the TGI (786-0 renal) was 9.55 µM and the GI50 (SK-MEL-28 melanoma) was 14.2 µM. The TGI (SK-MEL-28 melanoma) was over 90.9 µM, the GI50 (COLO 205 colon) was 1.13 µM and the TGI (COLO 205 colon) was 7.44 µM. The GI50 (PC-3 prostate) was 4.22 µM, the TGI (PC-3 prostate) was 27.2 µM and the GI50 (MDA-MB-468 breast) was 1.5 µM. The TGI (MDA-MB-468 breast) was 4.23 µM, the GI50 (SR leukemia) was 0.189 µM and the TGI (SR leukemia) was 0.342 µM. It also gave a GI50 (OVCAR-5 ovarian) of 2.47 µM, a TGI (OVCAR-5 ovarian) of 19.6 µM and a GI50 (HS 578T breast) of 1.34 µM. For the same molecule, the TGI (HS 578T breast) was 3.75 µM, the GI50 (NCI-H322M lung) was 6.5 µM and the TGI (NCI-H322M lung) was 23.6 µM. The GI50 (NCI-H522 lung) was 0.795 µM, the TGI (NCI-H522 lung) was 3.76 µM and the GI50 (T-47D breast) was 0.682 µM. It also gave a TGI (T-47D breast) of 20.7 µM, a GI50 (KM12 colon) of 0.17 µM and a TGI (KM12 colon) of 3.89 µM. It also gave a GI50 (SF-268 CNS) of 2.45 µM, a TGI (SF-268 CNS) of 11.2 µM and a GI50 (A549 NSCLC) of 0.686 µM. The TGI (A549 NSCLC) was 5.44 µM, the GI50 (SN12C renal) was 1.64 µM and the TGI (SN12C renal) was 13.6 µM. The GI50 (MDA-MB-231 breast) was 1.34 µM, the TGI (MDA-MB-231 breast) was 5.94 µM and the GI50 (TK-10 renal) was 2.58 µM. It also gave a TGI (TK-10 renal) of 8.79 µM, a GI50 (HOP-92 NSCLC) of 0.576 µM and a TGI (HOP-92 NSCLC) of 2.35 µM. For the same molecule, the GI50 (MDA-MB-435 melanoma) was 11.8 µM, the TGI (MDA-MB-435 melanoma) was over 51 µM and the GI50 (UO-31 renal) was 0.171 µM. The TGI (UO-31 renal) was 0.322 µM, the GI50 (UACC-62 melanoma) was 5.96 µM and the TGI (UACC-62 melanoma) was 20.4 µM. For the same molecule, the GI50 (HCC-2998 colon) was 6.72 µM, the TGI (HCC-2998 colon) was 21.9 µM and the GI50 (NCI-H460 NSCLC) was 0.395 µM. The TGI (NCI-H460 NSCLC) was 10.6 µM, the GI50 (DU-145 prostate) was 4.44 µM and the TGI (DU-145 prostate) was 23.2 µM. It also gave a GI50 (HT29 colon) of 2.48 µM, a TGI (HT29 colon) of 25 µM and a GI50 (IGROV1 ovarian) of 1.4 µM. For the same molecule, the TGI (IGROV1 ovarian) was 3.17 µM, the GI50 (CAKI-1 renal) was 1.76 µM and the TGI (CAKI-1 renal) was 5.85 µM. For the same molecule, the GI50 (BT-549 breast) was 2 µM, the TGI (BT-549 breast) was 5.84 µM and the GI50 (M14 melanoma) was 17.3 µM. For the same molecule, the TGI (M14 melanoma) was over 47.5 µM, the GI50 (CCRF-CEM leukemia) was 0.211 µM and the TGI (CCRF-CEM leukemia) was 0.383 µM. It also gave a GI50 (HCT-116 colon) of 0.957 µM, a TGI (HCT-116 colon) of 13.8 µM and a GI50 (OVCAR-4 ovarian) of 2.09 µM. The TGI (OVCAR-4 ovarian) was 6.3 µM, the GI50 (A498 renal) was 1.86 µM and the TGI (A498 renal) was 16.1 µM. The GI50 (MOLT-4 leukemia) was 0.182 µM, the TGI (MOLT-4 leukemia) was 0.436 µM and the GI50 (RPMI-8226 leukemia) was 0.444 µM. The TGI (RPMI-8226 leukemia) was 4.28 µM, the GI50 (SK-OV-3 ovarian) was 6.28 µM and the TGI (SK-OV-3 ovarian) was 28.6 µM. For the same molecule, the GI50 (OVCAR-8 ovarian) was 4.51 µM, the TGI (OVCAR-8 ovarian) was 18.7 µM and the GI50 (SK-MEL-2 melanoma) was 15.3 µM. For the same molecule, the TGI (SK-MEL-2 melanoma) was 30.1 µM.
